Experimental data published in paper PMC2374418, “A prolonged methoxymorpholino doxorubicin (PNU-152243 or MMRDX) infusion schedule in patients with solid tumours: a phase 1 and pharmacokinetic study” (British Journal of Cancer, 2000).

What was measured:
[1] = test system: patients with various intrinsically anthracycline resistant solid tumours; settings: 1998, cited from earlier work
rats = test system: rats; parameters: method as in Danesi et al, 1993; settings: ref Danesi et al, 1993; cited from earlier work
[2] = test system: patients with intrinsic anthracycline-resistant tumours; experiment: Phase I toxicity (CTC grading), MMRDX as 3 h intravenous infusion once every 4 weeks
From the text: Nowadays, anthracyclines play an important role in chemothera- peutic treatment of a wide variety of tumour types. The clinical use of anthracyclines is limited by their toxicity profile, especially irreversible, cumulative dose-related cardiotoxicity, and by intrinsic or acquired resistance of tumours cells. Mechanisms of this resistance consist of several pathways, such as overexpression of drug efflux pumps (i.e. P-glycoprotein), decrease in topoiso- merase II enzyme levels, and increase in cellular detoxifying capacity (Kaye and Merry, 1985; Deffie et al, 1989; de Jong et al, 1990; Ford and Hait, 1990; Roninson, 1997). Morpholinyl anthracyclines, such as methoxymorpholino doxorubicin (MMRDX or PNU-152243), were synthesized in search for new anthracyclines with at least partially novel modes of action, including activity on multidrug-resistant (MDR) tumours. MMRDX is a novel doxorubicin derivative in which the nitrogen atom of the daunosamine is enclosed in a methoxymor- pholino ring (Figure 1). […] The working mechanism of morpholinyl anthracyclines appears to be different from other anthracyclines. Morpholinyl anthracyclines inhibit ribosomal gene transcription as well as topoisomerase I-mediated DNA-cleavage (Wassermann et al, 1988, 1990). […] Metabolic conversion of MMRDX by human liver microsomes and NADPH potentiated the cytotoxicity in an ovarian carcinoma cell line (Lau et al, 1994). […] Therefore, we decided to perform a phase I study with MMRDX administered as a 3 h infusion every 4 weeks in order to try to increase the MTD as compared with bolus administration. In addition, we assessed pharmacokinetics of prolonged MMRDX-infusion. A prolonged methoxymorpholino doxorubicin (PNU- 152243 or MMRDX) infusion schedule in patients with solid tumours: a phase 1 and pharmacokinetic study E Fokkema1 , J Verweij2 , AT van Oosterom3 , DRA Uges1 , R Spinelli4 , O Valota4 , EGE de Vries1 and HJM Groen1 1 Department of Pulmonology, Department of Pharmacy, Department of Internal Medicine, University Hospital Groningen, PO Box 30.001, 9700 RB Groningen, The Netherlands; 2 Rotterdam Cancer Institute and University Hospital, Rotterdam, The Netherlands; 3 University Hospital Leuven, Belgium; 4 Pharmacia & Upjohn, Milan, Italy Summary The aim of this phase I study was to assess feasibility, pharmacokinetics and toxicity of methoxymorpholino doxorubicin (MMRDX or PNU-152243) administered as a 3 h intravenous infusion once every 4 weeks. […] The first cohort of patients was treated with 1 mg m-2 of MMRDX. The next cohorts received 1.25 mg m-2 and 1.5 mg m-2 respectively. […] (c) 2000 Cancer Research Campaign Keywords: methoxymorpholino doxorubicin; pharmacokinetics; phase I study 767 Received 6 January 1999 Revised 2 August 1999 Accepted 25 August 1999 Correspondence to: EGE de Vries British Journal of Cancer (2000) 82(4), 767-771 (c) 2000 Cancer Research Campaign DOI: 10.1054/ bjoc.1999.0996, available online at http://www.idealibrary.com on PATIENTS AND METHODS Patients The study was performed between December 1994 and June 1996. Patients with intrinsic anthracycline-resistant tumours were accrued in three different centres in Belgium and The Netherlands.

MDR xenografts = test system: MDR xenografts; parameters: method as in Ripamonti et al, 1992; settings: animal studies, ref Ripamonti et al, 1992; cited from earlier work
patients = test system: patients; parameters: method as in Vasey et al, 1995; settings: ref Vasey et al, 1995, cited from earlier work
[3] = parameters: method as in ref Johnston and Glazer, 1983; Acton et al, 1984; Streeter et al, 1986; settings: ref Johnston and Glazer, 1983; Acton et al, 1984; Streeter et al, 1986; cited from earlier work

## COc1cccc2c1C(=O)c1c(O)c3c(c(O)c1C2=O)C[C@@](O)(C(=O)CO)C[C@@H]3O[C@H]1C[C@H](N2CCO[C@H](OC)C2)[C@H](O)[C@H](C)O1 [MMRDX, methoxymorpholino doxorubicin]
[1]; 1.5 mg m-2 bolus every 4 weeks, ref Bakker et al
  Grade IV neutropenia: 9 % of administered cycles
[1]; NSCLC, ref Bakker et al
  Tumour responses: one partial response in one out of 17 NSCLC
[1]; bolus, ref Bakker et al
  Plasma clearance: 620 ml min-1 m-2
  t1/2 of the elimination phase: 49 h
[1]; phase II study, ref Vasey et al, 1995, Bakker et al
  Patients taken off study due to a decrease in LVEF: two patients
rats
  Cardiotoxicity in rats: no substantial cardiotoxicity
[2]; 1 mg m-2
  Non-haematological toxicity: did not exceed CTC grade II
[2]; 1.0 mg m-2
  Median (range) nadir of leucocytes over all evaluable cycles: 6.0 (3.9-15.1) x 109 l-1
  Median (range) nadir of neutrophils over all evaluable cycles: 3.3 (2.4-12.7) x 109 l-1
  Median (range) nadir of platelets over all evaluable cycles: 197 (130-356) x 109 1-1
[2]; 1.0 mg m-2, 7 cycles
  Neutrophils, CTC grade III toxicity: 0 % of total number of cycles
  Neutrophils, CTC grade IV toxicity: 0 % of total number of cycles
[2]; 1.0 mg m-2, 8 cycles
  Leucocytes, CTC grade III toxicity: 0 % of total number of cycles
  Leucocytes, CTC grade IV toxicity: 0 % of total number of cycles
  Platelets, CTC grade III toxicity: 0 % of total number of cycles
  Platelets, CTC grade IV toxicity: 0 % of total number of cycles
[2]; 1.25 mg m-2
  Median (range) nadir of leucocytes over all evaluable cycles: 2.7 (1.0-10.4) x 109 l-1
  Median (range) nadir of neutrophils over all evaluable cycles: 1.9 (0.5-8.3) x 109 l-1
  Median (range) nadir of platelets over all evaluable cycles: 190 (60-328) x 109 1-1
  Nausea, vomiting and diarrhoea exceeding grade II: one cycle
  Transient elevations in total bilirubin reaching CTC grade II: 2/15
[2]; 1.25 mg m-2, 17 cycles
  Leucocytes, CTC grade III toxicity: 6 % of total number of cycles
  Leucocytes, CTC grade IV toxicity: 0 % of total number of cycles
  Neutrophils, CTC grade III toxicity: 0 % of total number of cycles
  Neutrophils, CTC grade IV toxicity: 0 % of total number of cycles
  Platelets, CTC grade III toxicity: 0 % of total number of cycles
  Platelets, CTC grade IV toxicity: 0 % of total number of cycles
[2]; 1.25 mg m-2, six patients treated
  Patients with grade III/IV haematological toxicity: one patient
[2]; 1.5 mg m-2
  Death with neutropenic fever / sepsis during febrile neutropenia: One patient
  Grade III/IV fatigue: one out of 11 cycles
  Grade III/IV infection: four out of 11 cycles
  Median (range) nadir of leucocytes over all evaluable cycles: 1.4 (0.2-7.5) x 109 l-1
  Median (range) nadir of neutrophils over all evaluable cycles: 0.5 (0.2-7.3) x 109 l-1
  Median (range) nadir of platelets over all evaluable cycles: 55 (8-119) x 109 1-1
  Nausea and vomiting exceeding grade II: two out of 11 cycles
  Patients with grade III/IV haematological toxicity: all five patients
  Transient elevations in total bilirubin reaching CTC grade II: 3/11
[2]; 1.5 mg m-2, 7 cycles
  Neutrophils, CTC grade III toxicity: 29 % of total number of cycles
  Neutrophils, CTC grade IV toxicity: 43 % of total number of cycles
[2]; 1.5 mg m-2, 9 cycles
  Platelets, CTC grade III toxicity: 22 % of total number of cycles
  Platelets, CTC grade IV toxicity: 11 % of total number of cycles
[2]; 1.5 mg m-2, 10 cycles
  Leucocytes, CTC grade III toxicity: 40 % of total number of cycles
  Leucocytes, CTC grade IV toxicity: 30 % of total number of cycles
[2]; 1.5 mg m-2, three out of five patients
  Cycles reduced from 1.5 mg m-2 to 1.25 mg m-2 because of haematological toxicity: Four out of 11 cycles
[2]; 3 h i.v. infusion
  Patients with neutropenic fever: Three patients
[2]; 3 h i.v. infusion every 4 weeks
  Maximum tolerated dose (MTD): 1.25 mg m-2
[2]; 3 h i.v. infusion, 1.25 mg m-2
  CTC grade III/IV nausea and vomiting: 1/18
  Transient elevation in transaminases up to CTC grade III: 2/16
[2]; 3 h i.v. infusion, 1.5 mg m-2
  CTC grade III neutropenia: 2/7
  CTC grade III/IV nausea and vomiting: 2/11
  CTC grade IV neutropenia: 3/7
  Thrombocytopenia grade III: 2/9
  Thrombocytopenia grade IV: 1/9
  Transient elevation in transaminases up to CTC grade III: 4/11
[2]; 3 h i.v. infusion, all dose levels
  Cardiotoxicity: No cardiotoxicity
[2]; after two to six cycles
  LVEF at the end of treatment in eight patients: No significant decreases
[2]; all dose levels
  Grade III/IV toxicity for haemoglobin: No grade III/IV toxicity
  Phlebitis at the infusion site, nephro- and neurotoxicity: No phlebitis at the infusion site and no nephro- or neurotoxicity
  Start of late nausea and vomiting: around 4 days after treatment
[2]; highest dose level, after three cycles, LVEF remained in the normal range
  Decrease in LVEF, one patient: 13%
[2]; main toxicity
  Time of late haematological toxicity: ~22 day
[2]; overall
  Cumulative haematological toxicity for subsequent cycles: no cumulative haematological toxicity for subsequent cycles, except for platelets at the highest dose level
MDR xenografts
  Activity against MDR xenografts: showed activity
patients; 1.5 mg m-2 bolus every 3 weeks
  Grade IV neutropenia: 14 % of administered cycles
patients; bolus injection every 3 weeks
  Dose-limiting toxicity (DLT): myelosuppression (neutropenia and thrombocytopenia)
  Maximum tolerated dose (MTD): 1.5 mg m-2
patients; bolus
  Plasma clearance: 650 ml min-1 m-2
  t1/2 after a rapid distribution phase: 40 h
patients; head and neck (one out of three), cervical cancer (one out of five), colorectal cancer (two out of 20)
  Tumour responses: four responses
[3]
  Lipophilicity: high lipophilicity
